Data published in patent US20210070748A1, “INHIBITORS OF BRUTONS TYROSINE KINASE” (Pharmacyclics LLC, priority 2015, published 2021).

Experiments:
Assay type in all cases: biochemical
[1] = target: T1, ITK (Homo sapiens, UniProt Q08881); test: Inhibition of a panel of kinases, in vitro HotSpot kinase assay: ITK; conditions: D-compounds panel data; 1 μM ATP
T1 sequence (Q08881 1-620): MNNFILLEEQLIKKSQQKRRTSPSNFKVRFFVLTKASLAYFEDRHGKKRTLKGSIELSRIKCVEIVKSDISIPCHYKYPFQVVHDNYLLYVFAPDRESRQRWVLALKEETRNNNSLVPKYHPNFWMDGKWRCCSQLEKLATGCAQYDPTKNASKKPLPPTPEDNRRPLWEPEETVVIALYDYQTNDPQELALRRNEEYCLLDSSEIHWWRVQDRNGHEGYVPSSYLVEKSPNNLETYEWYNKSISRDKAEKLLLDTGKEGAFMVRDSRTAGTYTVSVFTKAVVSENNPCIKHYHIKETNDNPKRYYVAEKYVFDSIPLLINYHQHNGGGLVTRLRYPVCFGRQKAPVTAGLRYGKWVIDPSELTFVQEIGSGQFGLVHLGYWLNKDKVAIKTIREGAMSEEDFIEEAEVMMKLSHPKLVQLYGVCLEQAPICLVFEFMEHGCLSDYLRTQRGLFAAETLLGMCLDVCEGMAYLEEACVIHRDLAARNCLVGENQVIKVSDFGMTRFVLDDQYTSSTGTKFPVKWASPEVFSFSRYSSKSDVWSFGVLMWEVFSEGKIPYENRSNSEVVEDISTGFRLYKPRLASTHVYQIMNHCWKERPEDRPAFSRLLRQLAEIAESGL
Protocol: (§1) The degree of inhibition of a panel of kinases is determined using the in vitro HotSpot kinase assay (purified enzymes, ^33P-ATP, an appropriate substrate and 1 μM ATP).

[2] = target: T2, JAK3 (Homo sapiens, UniProt P52333); test: Inhibition of a panel of kinases, in vitro HotSpot kinase assay: JAK3; conditions: D-compounds panel data; 1 μM ATP; read-out: IC50 JAK3
T2 sequence (P52333 1-1124): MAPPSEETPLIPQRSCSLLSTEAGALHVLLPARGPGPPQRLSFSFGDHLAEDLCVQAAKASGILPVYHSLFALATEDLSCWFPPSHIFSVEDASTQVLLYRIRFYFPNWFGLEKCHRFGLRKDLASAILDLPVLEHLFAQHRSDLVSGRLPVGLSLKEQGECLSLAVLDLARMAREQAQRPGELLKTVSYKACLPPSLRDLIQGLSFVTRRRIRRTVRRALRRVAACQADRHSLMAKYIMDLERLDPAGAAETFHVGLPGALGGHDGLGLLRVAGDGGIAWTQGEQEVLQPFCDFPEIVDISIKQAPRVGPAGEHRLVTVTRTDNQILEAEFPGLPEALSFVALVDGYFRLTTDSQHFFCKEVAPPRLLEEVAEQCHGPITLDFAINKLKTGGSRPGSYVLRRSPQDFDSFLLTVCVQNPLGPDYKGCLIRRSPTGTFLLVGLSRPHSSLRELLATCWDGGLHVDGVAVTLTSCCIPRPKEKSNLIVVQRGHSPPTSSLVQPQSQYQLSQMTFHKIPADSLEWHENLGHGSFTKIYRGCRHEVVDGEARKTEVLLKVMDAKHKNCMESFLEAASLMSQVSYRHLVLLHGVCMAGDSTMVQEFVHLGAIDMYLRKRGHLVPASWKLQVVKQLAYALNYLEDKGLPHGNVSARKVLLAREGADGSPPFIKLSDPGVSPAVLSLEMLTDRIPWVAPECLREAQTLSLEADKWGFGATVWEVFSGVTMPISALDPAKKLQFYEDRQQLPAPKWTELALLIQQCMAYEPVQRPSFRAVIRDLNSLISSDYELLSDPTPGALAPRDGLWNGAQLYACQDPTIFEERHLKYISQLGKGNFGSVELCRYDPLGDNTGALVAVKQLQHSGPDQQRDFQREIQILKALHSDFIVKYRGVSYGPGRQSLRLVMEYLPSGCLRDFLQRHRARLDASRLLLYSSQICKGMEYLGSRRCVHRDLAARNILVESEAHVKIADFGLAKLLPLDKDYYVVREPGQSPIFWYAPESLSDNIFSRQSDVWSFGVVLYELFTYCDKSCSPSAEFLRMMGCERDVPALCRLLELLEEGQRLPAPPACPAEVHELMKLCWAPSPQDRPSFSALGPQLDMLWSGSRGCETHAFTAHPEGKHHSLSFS

[3] = target: EGFR (Homo sapiens, UniProt P00533); test: Inhibition of a panel of kinases, in vitro HotSpot kinase assay: EGFR; conditions: D-compounds panel data; 1 μM ATP
Chain of EGFR (P00533 25-1210): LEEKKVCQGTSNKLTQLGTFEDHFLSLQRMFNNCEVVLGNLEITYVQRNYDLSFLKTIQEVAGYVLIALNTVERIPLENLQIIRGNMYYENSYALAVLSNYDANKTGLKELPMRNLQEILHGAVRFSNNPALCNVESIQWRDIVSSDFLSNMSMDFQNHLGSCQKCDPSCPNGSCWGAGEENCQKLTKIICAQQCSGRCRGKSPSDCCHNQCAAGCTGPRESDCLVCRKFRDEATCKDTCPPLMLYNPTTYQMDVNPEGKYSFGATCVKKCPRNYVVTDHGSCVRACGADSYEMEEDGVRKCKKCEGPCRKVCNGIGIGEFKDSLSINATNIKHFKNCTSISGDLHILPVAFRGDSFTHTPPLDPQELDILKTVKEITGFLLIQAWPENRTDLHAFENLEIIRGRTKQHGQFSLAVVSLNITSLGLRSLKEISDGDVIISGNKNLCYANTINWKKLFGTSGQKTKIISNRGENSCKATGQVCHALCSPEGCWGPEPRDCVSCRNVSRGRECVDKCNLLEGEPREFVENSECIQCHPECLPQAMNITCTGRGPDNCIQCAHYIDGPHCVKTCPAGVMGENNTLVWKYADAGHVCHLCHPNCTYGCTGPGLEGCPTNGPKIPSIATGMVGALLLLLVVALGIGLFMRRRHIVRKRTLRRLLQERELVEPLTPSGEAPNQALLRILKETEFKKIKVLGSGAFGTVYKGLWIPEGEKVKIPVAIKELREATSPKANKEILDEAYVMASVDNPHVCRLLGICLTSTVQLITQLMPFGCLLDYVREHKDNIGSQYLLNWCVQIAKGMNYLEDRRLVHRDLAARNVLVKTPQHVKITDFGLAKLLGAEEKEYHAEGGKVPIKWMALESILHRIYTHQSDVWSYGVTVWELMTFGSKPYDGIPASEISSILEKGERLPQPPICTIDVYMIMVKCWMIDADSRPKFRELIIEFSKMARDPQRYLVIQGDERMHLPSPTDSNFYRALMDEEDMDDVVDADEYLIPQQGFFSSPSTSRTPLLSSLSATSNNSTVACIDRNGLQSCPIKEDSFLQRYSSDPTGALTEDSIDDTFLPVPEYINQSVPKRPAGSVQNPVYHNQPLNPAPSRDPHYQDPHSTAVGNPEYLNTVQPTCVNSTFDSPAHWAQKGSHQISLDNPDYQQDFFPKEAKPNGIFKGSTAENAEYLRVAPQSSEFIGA
Protocol: as §1

[4] = target: T3, TEC (Homo sapiens, UniProt P42680); test: Inhibition of a panel of kinases, in vitro HotSpot kinase assay: TEC; conditions: D-compounds panel data; 1 μM ATP
T3 sequence (P42680 1-631): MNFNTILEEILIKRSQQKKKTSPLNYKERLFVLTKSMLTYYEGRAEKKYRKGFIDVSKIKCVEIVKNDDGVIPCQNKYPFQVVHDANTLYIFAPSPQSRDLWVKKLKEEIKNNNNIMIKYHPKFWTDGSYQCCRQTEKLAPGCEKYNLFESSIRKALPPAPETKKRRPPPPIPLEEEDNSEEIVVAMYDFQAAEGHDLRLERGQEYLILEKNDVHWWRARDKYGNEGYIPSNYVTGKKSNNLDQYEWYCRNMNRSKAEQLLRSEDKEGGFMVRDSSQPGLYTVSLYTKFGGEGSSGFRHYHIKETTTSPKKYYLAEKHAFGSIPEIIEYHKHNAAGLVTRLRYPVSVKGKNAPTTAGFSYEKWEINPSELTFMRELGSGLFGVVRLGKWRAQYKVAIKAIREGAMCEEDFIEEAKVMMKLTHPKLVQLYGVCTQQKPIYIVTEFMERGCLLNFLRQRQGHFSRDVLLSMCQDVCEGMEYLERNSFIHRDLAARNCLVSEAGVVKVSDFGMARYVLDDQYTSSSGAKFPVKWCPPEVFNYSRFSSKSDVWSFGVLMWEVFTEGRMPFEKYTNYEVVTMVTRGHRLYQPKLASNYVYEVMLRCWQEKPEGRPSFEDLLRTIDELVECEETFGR
Protocol: as §1

[5] = target: LCK (Homo sapiens, UniProt P06239); test: Inhibition of a panel of kinases, in vitro HotSpot kinase assay: LCK; conditions: D-compounds panel data; 1 μM ATP; read-out: IC50 LCK
Chain of LCK (P06239 whole entry): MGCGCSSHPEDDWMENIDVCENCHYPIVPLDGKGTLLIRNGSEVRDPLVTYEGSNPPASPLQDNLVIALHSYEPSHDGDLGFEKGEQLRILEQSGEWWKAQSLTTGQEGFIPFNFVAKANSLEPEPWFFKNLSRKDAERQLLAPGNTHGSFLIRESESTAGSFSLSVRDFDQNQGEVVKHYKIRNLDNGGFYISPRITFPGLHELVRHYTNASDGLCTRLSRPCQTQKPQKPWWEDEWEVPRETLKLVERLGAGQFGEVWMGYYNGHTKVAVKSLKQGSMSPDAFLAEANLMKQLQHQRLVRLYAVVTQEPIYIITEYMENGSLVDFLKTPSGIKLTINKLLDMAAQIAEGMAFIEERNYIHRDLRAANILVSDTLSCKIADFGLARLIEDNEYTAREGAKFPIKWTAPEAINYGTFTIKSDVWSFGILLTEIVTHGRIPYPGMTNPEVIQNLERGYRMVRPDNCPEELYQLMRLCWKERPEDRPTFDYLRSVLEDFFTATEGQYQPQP

SMILES	IC50 [1] [µM]	IC50 [2] [µM]	IC50 [3] [µM]	IC50 [4] [µM]	IC50 [5] [µM]
C[C@@H]1[C@H](NC(=O)c2ccc(C(C)(C)C)cn2)CCCN1c1cnc(C(N)=O)c(Nc2cnn(C)c2)n1 [Example D-208, 5-[(2R,3R)-3-(5-tert-butylpyridine-2-amido)-2-methylpiperidin-1-yl]-3-[(1-methyl-1H-pyrazol-4-yl)amino]pyrazine-2-carboxamide]	0.1 to 1	1 to 10	1 to 10	0.01 to 0.1	0.1 to 1
CN1CCN(c2ccc(Nc3cc(N4CCC[C@@H](n5ccc6cc(C7CC7)ccc6c5=O)C4)cnc3C(N)=O)cc2)CC1 [Example D-178, 5-[(3R)-3-(6-cyclopropyl-1-oxo-1,2-dihydroisoquinolin-2-yl)piperidin-1-yl]-3-{[4-(4-methylpiperazin-1-yl)phenyl]amino}pyridine-2-carboxamide]	1 to 10	> 10	> 10	1 to 10	1 to 10
C[C@@H]1[C@H](NC(=O)c2ccc(C3(C(F)(F)F)CC3)cc2)CCCN1c1cnc(C(N)=O)c(Nc2cnn(C)c2)n1 [Example D-221, 3-[(1-Methyl-1H-pyrazol-4-yl)amino]-5-[(2R,3R)-2-methyl-3-{4-[1-(trifluoromethyl)cyclopropyl]benzamido}piperidin-1-yl]pyrazine-2-carboxamide]	1 to 10	> 10	1 to 10	0.01 to 0.1	0.1 to 1
C[C@@H]1[C@H](NC(=O)c2ccc(C3CC3)cc2)CCCN1c1cnc(C(N)=O)c(Nc2ccc(OC3CCN4CCCC4C3)cc2)n1 (stereo partly drawn) [Example D-211, 5-[(2R,3R)-3-(4-cyclopropylbenzamido)-2-methylpiperidin-1-yl]-3-{[4-(octahydroindolizin-7-yloxy)phenyl]amino}pyrazine-2-carboxamide]	0.1 to 1	0.1 to 1	1 to 10	≤ 0.01	0.01 to 0.1
CC(C)c1ccc(C(=O)N[C@@H]2CCCN(c3cnc(C(N)=O)c(Nc4cnn(C)c4)n3)[C@@H]2C)cc1 [Example D-197, 3-[(1-methyl-1H-pyrazol-4-yl)amino]-5-[(2R,3R)-2-methyl-3-[4-(propan-2-yl)benzamido]piperidin-1-yl]pyrazine-2-carboxamide]	0.1 to 1	1 to 10	1 to 10	0.01 to 0.1	0.1 to 1
Cc1cc(Nc2nc(N3CCC[C@@H](c4ncc(-c5ccc(C6CC6)cc5)[nH]4)[C@H]3C)cnc2C(N)=O)sn1 [Example D-186, 5-[(2R,3R)-3-[5-(4-cyclopropylphenyl)-1H-imidazol-2-yl]-2-methylpiperidin-1-yl]-3-[(3-methyl-1,2-thiazol-5-yl)amino]pyrazine-2-carboxamide]	> 10	1 to 10	1 to 10	0.1 to 1	1 to 10
